These results are taken from US20090093460A1, “Compositions” (AstraZeneca AB, priority 2003, published 2009).

Where two headings read alike, the source gives them in different places.

Series [1] is described as follows: Oral bioavailability in Sprague-Dawley rats. The note with it: rat, plasma, 30 μmol/kg. The format is in vivo. As to the method:
11-piperazin-1-yldibenzo[b,f][1,4]thiazepine was administered to 3 Sprague-Dawley rats each either intravenously or orally at doses of 10 μmol/kg or 30 μmol/kg, respectively, in a sodium citrate (pH 3) formulation. Blood samples were removed from each animal at several time points after dosing. The blood samples were centrifuged to produce plasma. Aliquots of each plasma sample were analyzed by an HPLC method with mass spectrometric detection to measure 11-piperazin-1-yldibenzo[b,f][1,4]thiazepine. The area under the plasma concentration curves (AUC) constructed from the sample measurements following iv or po administration were used to calculate oral biovailability.

For the next series, the target named is T1, Adrenergic α1D (Homo sapiens, UniProt P25100).
T1 construct: host or cells: HEK-293 cells
T1 sequence (P25100 1-572): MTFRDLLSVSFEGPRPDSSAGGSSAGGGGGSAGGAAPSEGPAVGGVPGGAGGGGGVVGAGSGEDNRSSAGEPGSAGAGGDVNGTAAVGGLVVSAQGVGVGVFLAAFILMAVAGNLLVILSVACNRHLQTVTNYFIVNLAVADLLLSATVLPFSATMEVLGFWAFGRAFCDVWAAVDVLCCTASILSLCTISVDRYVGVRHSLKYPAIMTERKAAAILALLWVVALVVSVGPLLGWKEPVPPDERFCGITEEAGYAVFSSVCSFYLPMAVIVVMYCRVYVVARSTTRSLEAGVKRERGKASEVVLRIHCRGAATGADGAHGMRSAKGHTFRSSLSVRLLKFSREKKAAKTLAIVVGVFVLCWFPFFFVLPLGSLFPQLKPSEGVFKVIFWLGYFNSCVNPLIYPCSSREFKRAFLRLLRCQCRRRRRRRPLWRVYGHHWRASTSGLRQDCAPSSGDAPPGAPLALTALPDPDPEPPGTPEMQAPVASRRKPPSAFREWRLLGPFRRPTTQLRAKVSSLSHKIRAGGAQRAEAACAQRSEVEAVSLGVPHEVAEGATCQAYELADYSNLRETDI
Briefly: Radioligand binding 203400 Adrenergic α1D. The text has this:
Receptor binding methods, (α-adrenergic subtype specific, are provided below.

In another series the target is T2, 5HT Transporter (Homo sapiens, UniProt P31645).
T2 construct: from tissue; host or cells: brain of living primate subjects (PET)
Briefly: PET scans of primate subjects, 5HT Transporter occupancy. The format is in vivo. The conditions noted are these: preliminary PET scans. The text has this: (§1) The compound of Formula I is a dibenzothiazepine that has shown antidopaminergic activity.

The nature of series [2]: Plasma levels in satellite exposure animals (Geller-Seifter). Type of series: in vivo. The conditions noted are these: Long Evans, rat, subcutaneous, 0.25 hours after administration. The method, then: Anxiolytic activity of 11-piperazin-1-yldibenzo[b,f][1,4]thiazepine was tested in rats according to the Geller-Seifter conflict test. Efficacy results are presented in Table 1 and plasma levels in satellite exposure animals at 0.25 hours after administration are provided in Table 2.
Several doses were tested on a given day in different subjects. Each dose, then, was tested in a different sub-set of rats. The dependent variables recorded were the rate of responding in unpunished and punished components (total responses/total time under the component), the number of shocks delivered. A selective anxiolytic effect is defined as an increase in responding in the […] components with relatively less or no effect on responding in […] components. t-Tests were used to compare mean of the control's rate of responding on vehicle day of the rats used for a specific dose to the same rats means following delivery of each dose of compound (for only the rats used within each dose). Brains, CSF and plasma were collected in a satellite group of rats that match the Geller-Seifter rats to evaluate exposure levels.
Exposure sampling: In weight and feeding status-matched subjects, terminal plasma, whole brain and CSF samples were collected. Four rats were used for each of the 4 doses of drug, with samples obtained 15 minutes after dosing.

The test system of series [3] is mice. The series is described as follows: Mouse forced swim test. Type of series: in vivo. The note with it: 10.0 mg/kg sc, 15 minutes prior. As to the method:
Methods: Mice were placed in cylinders of water (25.0° C.±1.5° C.) for 6 minutes. The amount of immobility was quantified during the last 4 minutes of each session. The experimental observer was blind to the treatment conditions. […] Imipramine 45.0 mg/kg and citalopram 15.0 mg/kg were measured as the salt and administered ip 60 minutes prior to the behavioural session.

Series [4] has as its system mice. Briefly: Tail suspension test. The format is in vivo, mouse. The method, then: Antidepressant activity of 11-piperazin-1-yldibenzo[b,f][1,4]thiazepine was assessed in mice according to the tail suspension test. As shown in the results below, 11-piperazin-1-yldibenzo[b,f][1,4]thiazepine has antidepressant activity in mice.
In a first experiment, mice (n=10/group) were treated with vehicle, 2.0, 5.0, or 10.0 mg/kg of 11-piperazin-1-yldibenzo[b,f][1,4]thiazepine s.c. 15 minutes prior to the test session. Mice were suspended from their tails for 7 minutes. During the last 5 minutes of the test, the duration of immobility was recorded. In a second experiment, mice (n=10/group) were treated with vehicle, 30 mg/kg 11-piperazin-1-yldibenzo[b,f][1,4]thiazepine, or 30 mg/kg fluoxetine p.o. 60 minutes prior to the test session. Mice were suspended from their tails for 7 minutes. During the last 5 minutes of the test, the duration of immobility was recorded.

For the next series, the target named is T3, Adrenergic α2A (Homo sapiens, UniProt P08913).
T3 sequence (P08913 1-465): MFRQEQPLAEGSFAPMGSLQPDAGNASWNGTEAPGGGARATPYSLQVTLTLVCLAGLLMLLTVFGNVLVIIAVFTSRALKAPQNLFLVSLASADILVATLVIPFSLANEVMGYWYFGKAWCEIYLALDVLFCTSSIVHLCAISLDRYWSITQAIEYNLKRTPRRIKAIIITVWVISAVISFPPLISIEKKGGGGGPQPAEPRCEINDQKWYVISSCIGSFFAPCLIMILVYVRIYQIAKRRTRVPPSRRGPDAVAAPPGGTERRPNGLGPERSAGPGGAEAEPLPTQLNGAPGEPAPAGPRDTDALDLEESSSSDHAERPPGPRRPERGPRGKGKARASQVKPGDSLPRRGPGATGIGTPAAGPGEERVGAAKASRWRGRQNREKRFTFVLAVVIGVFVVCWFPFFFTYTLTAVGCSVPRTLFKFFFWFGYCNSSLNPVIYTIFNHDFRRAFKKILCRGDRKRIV
The series is described as follows: Radioligand binding Adrenergic α2A.

Series [5] is described as follows: PET scans of primate subjects, brain entry. Type of series: in vivo. The note with it: preliminary PET scans.
Source text: as §1

T2 sequence (P31645 whole entry, species assumed): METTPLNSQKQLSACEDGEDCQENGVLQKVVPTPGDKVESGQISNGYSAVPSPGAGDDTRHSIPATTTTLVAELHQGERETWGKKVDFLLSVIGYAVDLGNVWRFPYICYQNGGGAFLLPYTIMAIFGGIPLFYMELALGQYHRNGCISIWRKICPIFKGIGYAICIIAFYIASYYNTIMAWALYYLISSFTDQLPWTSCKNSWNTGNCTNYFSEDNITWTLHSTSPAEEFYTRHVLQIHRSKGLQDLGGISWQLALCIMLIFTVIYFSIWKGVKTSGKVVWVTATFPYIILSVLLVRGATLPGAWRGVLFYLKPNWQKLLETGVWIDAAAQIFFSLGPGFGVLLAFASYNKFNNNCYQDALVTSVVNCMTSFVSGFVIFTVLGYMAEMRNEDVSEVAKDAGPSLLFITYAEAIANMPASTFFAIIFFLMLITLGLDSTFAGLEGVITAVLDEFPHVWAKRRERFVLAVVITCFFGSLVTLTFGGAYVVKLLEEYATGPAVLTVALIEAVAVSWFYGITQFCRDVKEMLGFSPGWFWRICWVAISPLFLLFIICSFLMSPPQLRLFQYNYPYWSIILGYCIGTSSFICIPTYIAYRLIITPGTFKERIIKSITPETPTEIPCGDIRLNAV

Regarding `c1ccc2c(c1)N=C(N1CCNCC1)c1ccccc1S2` [11-piperazin-1-yldibenzo[b,f][1,4]thiazepine], the bioavailability (in general, the share of a dose that reaches the circulation, judged against a reference dose that is usually intravenous) in series [1] amounted to 11%. For the same compound, the IC50 (commonly the concentration at which inhibition is half-maximal) at Adrenergic α1D came to 0.377 ± 0.049 µM; on Adrenergic α2A it was 2.82 ± 0.275 µM. The n on Adrenergic α1D is 0.984 ± 0.111; at Adrenergic α2A, 0.969 ± 0.012. In addition, on Adrenergic α1D (0.3 μM), the inhibition (commonly the change of the read-out against control, counted positive when it falls) at 0.3 µM was determined as 53%. Also, the Ki on Adrenergic α1D (read-out: ki) amounted to 0.185 ± 0.024 µM; on Adrenergic α1D (α1D, read-out: Affinity), 0.185 µM; on Adrenergic α2A, 1.06 ± 0.103 µM. Further, the “transporter occupancy by PET” value on 5HT Transporter is “occupies”. The concentration at 0.25 h in series [2] (2 mg/kg s.c.) was found to be 4.8 µM; in series [2] (5 mg/kg s.c.), 12.1 µM; in series [2] (10 mg/kg s.c.), 19.4 µM. In addition, the “antidepressant effect (immobility)” value with mice [3] was “antidepressant effects in this assay comparable to imipramine”. In addition, the “reduction of immobility, fraction of that of the vehicle control group” value in the series on mice [4] (10.0 mg/kg s.c.) was “more than ½”; in the series on mice [4] (30 mg/kg p.o., 60 minutes prior), “more than ½”. In addition, the “duration of immobility compared with controls” value with mice [4] (10.0 mg/kg s.c., p<0.01) is listed as “significantly reduced immobility”. Besides, the “duration of immobility compared to the vehicle control group” value with mice [4] (30 mg/kg p.o., 60 minutes prior, p<0.01) is reported as “significantly reduced immobility”. For the same compound, in the series on mice [4] (all doses tested: 2.0, 5.0, 10.0 mg/kg s.c., 15 minutes prior), the duration of immobility entry was “reduced immobility”. In addition, on Adrenergic α2A (3 μM), 3 µM produced 51% inhibition. Moreover, the “brain entry by PET” value in series [5] is “reaches the brain”.
